Source: patent publication US20250049034A1, “Composition” (Syngenta Crop Protection AG, priority 2021, published 2025)

Experiment: Chemical stability of the active ingredients in the composition
Assay type: physicochemical
Conditions: in Composition 1
Method: The stability of the active ingredients per se were also measured under a wide variation of temperature conditions.

Row | Compound | active ingredient content (2 wks@ 54° C.) [% wt.] | active ingredient content (2 wks@ −18° C.) [% wt.] | active ingredient content (Initial) [% wt.]
1 | CCOc1nc(F)cc2nc(S(=O)(=O)Nc3c(Cl)cccc3C(=O)OC)nn12 [Cloransulam-methyl] | 0.70 | 0.76 | 0.77
2 | CSc1nnc(C(C)(C)C)c(=O)n1N [Metribuzin] | 7.1 | 7.1 | 7.2
3 | CCc1cccc(C)c1N(C(=O)CCl)C(C)COC (stereo not drawn) [S-metalachlor, S-metolachlor] | 38.4 | 38.2 | 38.5
